Molecules are shown by their SMILES.

The subject of test [1] is HCC1143. Put plainly: normalised viability (% of control), CellTiter-Blue; higher = more viable cells (about 100 = DMSO control). The following applies: 100 nM; incubation time: 72 h. Here is the method:
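DSRT, CellTiter-Blue viability, 72 h incubation. Signal is normalised to DMSO and benzethonium chloride controls. Value is the normalised response at dose 3.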
Background: Resazurin is reduced to fluorescent resorufin, in cell work by metabolically active cells.

The next test has as its system BT-474. In words: drug sensitivity score (DSS), CellTiter-Glo (DSS (AUC-based score)); higher = stronger drug effect (viability inhibition or cytotoxicity); extreme values may be limits of the assay. The following applies: incubation time: 72 h. The method in brief: (§1)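 Breast cancer cell lines were seeded in 20 µl suspension into 384-well plates already holding compound and incubated for 72 h. Each compound was tested at 5 concentrations in 10-fold steps across its own 10,000-fold range. Plates were normalised to 0.1 % DMSO and a positive kill control after CellTox Green and then CellTiter-Glo readings. The area under the fitted dose-response curve served as the basis for the drug sensitivity score.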

For the next test, the system named is BT-549. Described as above. The settings on record: incubation time: 72 h. The essentials:
as §1

For the next test, the system named is CAL-120. Described as above. The following applies: incubation time: 72 h. The method in brief:
as §1

A further test concerns CAL-148. Described as above. The settings on record: incubation time: 72 h. The method in brief:
as §1

In the next test the test system is CAL-51. The description is as above. The settings on record: incubation time: 72 h. The method in brief:
as §1

A further test has as its system CAL-85-1. The test is described as above. The settings on record: incubation time: 72 h. The essentials: as §1
Another test concerns DU-4475. Described as above. The following applies: incubation time: 72 h. The method in brief:
as §1

Test [2] has as its system HCC1143. The test is described as above. The settings on record: incubation time: 72 h. The method in brief: as §1
The subject of another test is HCC1599. Described as above. The settings on record: incubation time: 72 h. The essentials:
as §1

For the next test, the system named is HCC1937. Described as above. The following applies: incubation time: 72 h. The method in brief: as §1
A further test deals with HDQ-P1. Described as above. The following applies: incubation time: 72 h. The essentials: as §1
The next test relates to Hs578T. The test is described as above. The settings on record: incubation time: 72 h. The essentials: as §1
The subject of another test is MCF-10A. The description is as above. The settings on record: incubation time: 72 h. The essentials: as §1
The next test concerns MDA-MB-231. Described as above. The following applies: incubation time: 72 h. The essentials:
as §1

A further test deals with MDA-MB-436. The description is as above. The settings on record: incubation time: 72 h. The method in brief:
as §1

A further test deals with MDA-MB-453. Described as above. The settings on record: incubation time: 72 h. The method in brief: as §1
The subject of a further test is MDA-MB-468. The test is described as above. The settings on record: incubation time: 72 h. The essentials:
as §1

A further test concerns MFM-223. The description is as above. The settings on record: incubation time: 72 h. The method in brief: as §1
The next test concerns SK-BR-3. The test is described as above. The following applies: incubation time: 72 h. The essentials: as §1

For the molecule `Clc1ccc(Nc2nnc(Cc3ccncc3)c3ccccc23)cc1` [Vatalanib], in the test with HCC1143 [1], the normalised viability stood at 78.9%. Moreover, the drug sensitivity score in the test with BT-474, in the test on BT-549, in the test on CAL-120, in the test on CAL-148, in the test with CAL-51 and in the test with CAL-85-1 was 0 each time. Also, the drug sensitivity score in the test with DU-4475, in the test with HCC1143 [2], in the test on HCC1599, with HCC1937, with HDQ-P1 and in the test on Hs578T was 0 throughout. Moreover, the drug sensitivity score in the test on MCF-10A, in the test with MDA-MB-231, with MDA-MB-436, in the test on MDA-MB-453, with MDA-MB-468 and in the test on MFM-223 was 0 each time. Moreover, in the test on SK-BR-3, the drug sensitivity score came out at 0.
In turn, `CCC1=C[C@@H]2CN(C1)Cc1c([nH]c3ccccc13)[C@@](C(=O)OC)(c1cc3c(cc1OC)N(C)[C@H]1[C@@](O)(C(=O)OC)[C@H](OC(C)=O)[C@]4(CC)C=CCN5CC[C@]31[C@@H]54)C2` [Vinorelbine] yielded a normalised viability in the test on HCC1143 [1] of 54.4%. Moreover, the drug sensitivity score was determined as 12.3 in the test with BT-474; 20.7 with BT-549; 13.2 with CAL-120; 17.1 in the test on CAL-148; 17.1 in the test on CAL-51; 19.8 with CAL-85-1. Further, the drug sensitivity score in the test with DU-4475 came to 6.47; in the test with HCC1143 [2], 15.6; in the test on HCC1599, 18.8; with HCC1937, 8.42; in the test on HDQ-P1, 7.16; in the test on Hs578T it was 19.8. In addition, the drug sensitivity score with MCF-10A worked out at 10.2; with MDA-MB-231, 13.7; in the test with MDA-MB-436 it was 21.9; with MDA-MB-453, 15.6; in the test with MDA-MB-468 it was 24.8; in the test with MFM-223 it was 16. This molecule also returned a drug sensitivity score in the test on SK-BR-3 of 37.5.
As for `Oc1nc(-c2ccc(C(F)(F)F)cc2)nc2c1CSCC2` [XAV-939], the normalised viability in the test with HCC1143 [1] came out at 77.6%. The drug sensitivity score with BT-474 was determined as 3.54; in the test on BT-549 it was 0; in the test with CAL-120 it was 0; in the test on CAL-148, 0; in the test with CAL-51, 8.6; in the test on CAL-85-1, 0. For the same molecule, the drug sensitivity score in the test on DU-4475, in the test with HCC1143 [2], with HCC1599, in the test with HCC1937, with HDQ-P1 and in the test with Hs578T was 0 throughout. The drug sensitivity score came out at 0 with MCF-10A; 2.7 in the test on MDA-MB-231; 0 in the test with MDA-MB-436; 0.956 with MDA-MB-453; 0.9 with MDA-MB-468; 0 in the test on MFM-223. The drug sensitivity score with SK-BR-3 turned out to be 0.

These data come from the supplement of paper PMC4862054.
